Reference: patent publication US20020177572A1, “Viral infection of cells” (priority 1997, published 2002)
Residues, ends and D or L forms follow the SMILES beside them. *: point of attachment. Cbz = O=C(OCc1ccccc1)*; OtBu = CC(C)(C)O*

What was measured:
THP-1 = experiment: Adenovirus infection and integrin induction in THP-1 cell line; type: cell-based, human; settings: results not shown
primary human monocytes = experiment: Adenoviral infection of primary human monocytes (β-galactosidase expression by FACS); type: cell-based; settings: prior cytokine treatment for 72 hours, then β-galactosidase adenovirus at 100 m.o.i.
Experimental: Human monocytes or murine RAW 264.7 were cultured at 5×10^5/ml in RPM1 1640 (Bio Whittaker inc.) supplemented with 5% (v/v) heat inactivated foetal calf serum containing 10 units/ml penicillin/streptomycin and 2 mM glutamine at 37° C. Monocytes were treated with GM-CSF (5U/ml) or M-CSF (1 μg/ml) for 72 hours. Expression of integrins was assayed by indirect immunofluorescence and FACS analysis using monoclonal antibodies to αVβ3 (100 μg/ml LM609, provided by IXSYS Corp. (San Diego Calif. USA), or αVβ5 (undiluted active supernatant kindly provided by J. Gamble Smith). The commercially available monoclonal antibody OX14(100 μg/ml) was used as a negative control.
Following cytokine treatment monocytes were washed in RPM 1640 and resuspended at 5×10^5 cells/ml. The cells were infected with virus at the indicated plaque forming units per cell (multiplicity of infection—m.o.i.). β-galactosidase expression in individual cells was measured by FACS.

U937 = experiment: Adenovirus infection and integrin induction in U937 cell line; type: cell-based, human; settings: results not shown
[1] = tested on: M-CSF-treated human monocytes; experiment: Cytokine production in response to various stimuli (ELISA); type: cell-based; settings: production induced by the stimulus; means of 4-11 experiments
Experimental: The elutriated human monocytes were incubated at approximately 2×10^6/ml in RPMI 1640 with 25 mM HEPES and 2 mM L-glutamine, supplemented with 5% (v/v) heat inactivated fetal calf serum and 10 units/ml penicillin/streptomycin. […] The cells were then replated on 100 mm Petri dishes and infected for 2 h with a m.o.i. of between 10:1 and 120:1 (in most experiments, 20:1. 40:1 or 80:1 was used) of either AdvIκBα or Adv0, in serum-free RPMI 1640. Cells were then incubated in RPMI 1640 supplemented as above for 48 h to allow for significant over-expression of IκBα, as assessed. During the changes of medium involved, non-adherent cells were discarded, resulting in a further purification of monocyte-derived macrophages.
(§1) In the assays for cytokine production, cells were replated at 5×10^5 cells per well on a 96-well dish, and stimulated as above for 4 or 16 h. Supernatants were analysed for TNFα (27), IL-1β, IL-6 and IL-8 (23), IL-10 (29, 30), IL-1ra and the p55 and p75 soluble TNF receptors (31) by ELISA. The proteosome inhibitor Cbz-Ile-Glu(O-t-Bu)-Ala-leucinal (PSI) was obtained from Calbiochem (Nottingham. England).
LPS is capable of inducing all the cytokines (TNFα, IL-1β, IL-6, IL-8) and inhibitors (IL-10, IL-1ra and the soluble TNF receptors) assayed in this study (Table I; the results are means of 4-11 experiments). The induction of TNFα mRNA by zymosan, has previously been reported to be far weaker than LPS-induced TNFα mRNA in mouse peritoneal macrophages (32), but the TNFα response to zymosan in M-CSF-treated human monocytes was equal to that of LPS (Table 1).

[2] = tested on: human monocyte-derived macrophages; experiment: Effect of proteosome inhibitor PSI on induced TNFα production; type: cell-based; settings: FIG. 14
Experimental: as §1
The independence from NFκB of zymosan induced TNF was further emphasised by studies with the proteosome inhibitor PSI. Inhibition of proteosome function inhibits IκBα degradation thus preventing NFκB nuclear translocation.

Molecule	induction of αVβ3 or αVβ5 expression (THP-1)	cells expressing the β-galactosidase gene (primary human monocytes) [%]	induction of αVβ3 or αVβ5 expression (U937)	Anti-inflammatory cytokines: IL-10 [1] [pg/mL]	Anti-inflammatory cytokines: IL-tra [1] [pg/mL]	Anti-inflammatory cytokines: P55 s TNF-R [1] [pg/mL]	Anti-inflammatory cytokines: P75 s TNF-R [1] [pg/mL]	Proinflammatory cytokines: IL-1 [1] [pg/mL]	Proinflammatory cytokines: IL-6 [1] [pg/mL]	Proinflammatory cytokines: IL-8 [1] [pg/mL]	Proinflammatory cytokines: TNFα [1] [pg/mL]	also measured
GM-CSF: granulocyte-macrophage colony stimulating factor	neither cytokine was able to induce	52	neither cytokine was able to induce									
C[C@H](CCC(=O)O)C[C@H](C)C[C@H](C)C(=O)/C=C(\O)[C@H](C)C[C@H](C)C/C=C/[C@@H](C)[C@@H](O)[C@@H](C)[C@@H](O)C[C@@H]1CC[C@@](C)([C@H]2CC[C@@](C)([C@@H](C)O)O2)O1 [Lomycin, ionomycin]				0	0	0	0	0	0	900	0	
CCCCCCCCCCCCCC(=O)O[C@@H]1[C@@H](C)[C@@]2(O)[C@@H](C=C(CO)C[C@]3(O)C(=O)C(C)=C[C@@H]23)[C@@H]2C(C)(C)[C@]12OC(C)=O [PMA]				0	1000	0	500	400	300	3000	6000	
TNFα				0				200	2000			
CC[C@H](C)[C@H](NC(=O)OCc1ccccc1)C(=O)N[C@@H](CCC(=O)OC(C)(C)C)C(=O)N[C@@H](C)C(=O)N[C@H](C=O)CC(C)C [PSI, Cbz-Ile-Glu(O-t-Bu)-Ala-leucinal] (Cbz-IE(OtBu)AL-aldehyde)												effect on LPS induced TNF production ([2]; LPS): very effective in blocking; effect on zymosan-induced TNF production ([2]; zymosan): did not affect
M-CSF: macrophage colony stimulating factor (protein, UniProt P09603 33-554, looked up) Macrophage colony-stimulating …: EEVSEYCSHMIGSGHLQSLQRLIDSQMETSCQITFEFVDQEQLKDPVCYLKKAFLLVQDIMEDTMRFRDNTPNAIAIVQLQELSLRLKSCFTKDYEEHDKACVRTFYETPLQLLEKVKNVFNETKNLLDKDWNIFSKNCNNSFAECSSQDVVTKPDCNCLYPKAIPSSDPASVSPHQPLAPSMAPVAGLTWEDSEGTEGSSLLPGEQPLHTVDPGSAKQRPPRSTCQSFEPPETPVVKDSTIGGSPQPRPSVGAFNPGMEDILDSAMGTNWVPEEASGEASEIPVPQGTELSPSRPGGGSMQTEPARPSNFLSASSPLPASAKGQQPADVTGTALPRVGPVRPTGQDWNHTPQKTDHPSALLRDPPEPGSPRISSLRPQGLSNPSTLSAQPQLSRSHSSGSVLPLGELEGRRSTRDRRSPAEPEGGPASEGAARPLPRFNSVPLTDTGHERQSEGSFSPQLQESVFHLLVPSVILVLLAVGGLLFYRWRRRSHQEPQRADSPLEQPEGSPLTQDDRQVELPV	neither cytokine was able to induce	90	neither cytokine was able to induce									
